Measurements as given in ChEMBL document CHEMBL1143211, “Inhibitors of proteases and amide hydrolases that employ an alpha-ketoheterocycle as a key enabling functionality” (Bioorg Med Chem, 2008).
In brackets after ≈: the same amount, converted by molar mass.

Experiments:
[1] = Inhibition of post-glutamyl peptide hydrolase-like activity of human 20S proteasome
PC-3 = assay: Growth inhibition of human PC3 cells; format: functional, cell-based
[2] = Inhibition of trypsin-like activity of human 20S proteasome
Prothrombin = Prothrombin (Homo sapiens, UniProt P00734); assay: Inhibition of human alpha-thrombin
Coagulation factor X = Coagulation factor X (Homo sapiens, UniProt P00742); assay: Inhibition of human factor 10a
Chain of Coagulation factor X (P00742 41-179 limits assumed): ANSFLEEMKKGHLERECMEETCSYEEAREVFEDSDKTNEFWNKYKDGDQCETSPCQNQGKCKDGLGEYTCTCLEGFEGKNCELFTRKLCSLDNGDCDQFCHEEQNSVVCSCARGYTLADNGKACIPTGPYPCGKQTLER
Chain of Coagulation factor X (P00742 235-488 limits assumed): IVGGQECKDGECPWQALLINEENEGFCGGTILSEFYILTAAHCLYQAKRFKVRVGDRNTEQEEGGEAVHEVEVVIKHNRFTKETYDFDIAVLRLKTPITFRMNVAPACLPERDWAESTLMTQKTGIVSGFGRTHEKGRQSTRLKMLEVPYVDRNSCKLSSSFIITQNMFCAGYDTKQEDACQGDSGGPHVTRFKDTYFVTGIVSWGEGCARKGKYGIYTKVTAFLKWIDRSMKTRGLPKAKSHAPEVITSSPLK

Coagulation factor VII = Coagulation factor VII (Homo sapiens, UniProt P08709); assay: Inhibition of human factor 7a
Chain of Coagulation factor VII (P08709 61-212 limits assumed): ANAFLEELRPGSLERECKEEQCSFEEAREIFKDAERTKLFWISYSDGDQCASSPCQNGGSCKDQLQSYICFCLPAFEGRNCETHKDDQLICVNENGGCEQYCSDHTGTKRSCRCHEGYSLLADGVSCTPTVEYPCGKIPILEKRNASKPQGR
Chain of Coagulation factor VII (P08709 213-466 limits assumed): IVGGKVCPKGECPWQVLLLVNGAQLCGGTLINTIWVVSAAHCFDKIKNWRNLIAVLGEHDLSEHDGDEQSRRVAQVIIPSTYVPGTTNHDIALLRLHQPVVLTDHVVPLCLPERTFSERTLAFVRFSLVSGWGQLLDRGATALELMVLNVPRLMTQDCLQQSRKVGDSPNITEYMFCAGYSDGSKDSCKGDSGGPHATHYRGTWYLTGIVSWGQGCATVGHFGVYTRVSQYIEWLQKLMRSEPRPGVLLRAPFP

[3] = target: Bifunctional purine biosynthesis protein ATIC (Homo sapiens, UniProt P31939); assay: Inhibition of human aminoimidazole carboxamide transformylase
Chain of Bifunctional purine biosynthesis protein ATIC (P31939 whole entry): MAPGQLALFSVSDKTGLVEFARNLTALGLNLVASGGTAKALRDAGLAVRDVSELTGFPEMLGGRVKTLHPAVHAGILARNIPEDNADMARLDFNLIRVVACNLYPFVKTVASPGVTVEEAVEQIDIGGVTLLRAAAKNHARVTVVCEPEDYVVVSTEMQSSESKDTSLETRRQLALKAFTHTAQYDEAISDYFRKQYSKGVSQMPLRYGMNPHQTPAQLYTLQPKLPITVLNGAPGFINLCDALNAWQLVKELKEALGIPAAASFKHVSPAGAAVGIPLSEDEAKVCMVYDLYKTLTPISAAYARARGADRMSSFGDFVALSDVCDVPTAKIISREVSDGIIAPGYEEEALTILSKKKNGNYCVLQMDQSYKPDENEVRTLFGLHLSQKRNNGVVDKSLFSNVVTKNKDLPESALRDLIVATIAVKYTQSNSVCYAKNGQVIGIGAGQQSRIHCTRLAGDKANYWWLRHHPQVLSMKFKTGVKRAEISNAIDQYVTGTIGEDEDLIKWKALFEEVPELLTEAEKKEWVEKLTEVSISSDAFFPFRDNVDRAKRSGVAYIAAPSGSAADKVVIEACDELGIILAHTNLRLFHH

[4] = Inhibition of Escherichia coli glycinamide ribonucleotide transformylase
[5] = target: T1, Trifunctional purine biosynthetic protein adenosine-3 (Homo sapiens, UniProt P22102); assay: Inhibition of human glycinamide ribonucleotide transformylase
T1 sequence (P22102 whole entry): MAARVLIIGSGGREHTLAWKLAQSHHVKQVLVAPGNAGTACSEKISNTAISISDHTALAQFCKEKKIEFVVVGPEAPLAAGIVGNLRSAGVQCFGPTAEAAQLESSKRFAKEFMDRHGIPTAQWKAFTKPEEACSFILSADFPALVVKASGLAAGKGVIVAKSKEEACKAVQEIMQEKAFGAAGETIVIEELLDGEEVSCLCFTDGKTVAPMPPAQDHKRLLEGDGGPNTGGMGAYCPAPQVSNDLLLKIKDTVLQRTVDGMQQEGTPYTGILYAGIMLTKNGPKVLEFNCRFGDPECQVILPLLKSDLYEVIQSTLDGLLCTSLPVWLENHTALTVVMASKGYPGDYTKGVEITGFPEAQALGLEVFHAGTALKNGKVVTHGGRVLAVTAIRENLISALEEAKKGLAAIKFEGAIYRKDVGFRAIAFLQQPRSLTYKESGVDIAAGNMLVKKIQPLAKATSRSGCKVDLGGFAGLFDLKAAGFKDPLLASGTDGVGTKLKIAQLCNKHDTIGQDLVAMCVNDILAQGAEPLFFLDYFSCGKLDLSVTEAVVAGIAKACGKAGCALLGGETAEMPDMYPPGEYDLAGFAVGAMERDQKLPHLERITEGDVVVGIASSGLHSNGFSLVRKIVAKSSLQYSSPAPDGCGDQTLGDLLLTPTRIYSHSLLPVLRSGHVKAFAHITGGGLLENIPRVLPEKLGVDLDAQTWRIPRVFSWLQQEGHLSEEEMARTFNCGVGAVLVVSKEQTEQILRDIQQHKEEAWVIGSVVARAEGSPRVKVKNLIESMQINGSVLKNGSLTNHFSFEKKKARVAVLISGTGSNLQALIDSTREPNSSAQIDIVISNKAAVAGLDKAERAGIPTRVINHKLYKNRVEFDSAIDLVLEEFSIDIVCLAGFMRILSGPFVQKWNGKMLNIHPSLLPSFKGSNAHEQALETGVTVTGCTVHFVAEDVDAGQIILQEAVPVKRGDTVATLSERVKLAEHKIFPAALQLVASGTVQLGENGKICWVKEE

Proline iminopeptidase = Proline iminopeptidase (Serratia marcescens, UniProt O32449); assay: Inhibition of Serratia marcescens prolyl aminopeptidase
Chain of Proline iminopeptidase (O32449 whole entry): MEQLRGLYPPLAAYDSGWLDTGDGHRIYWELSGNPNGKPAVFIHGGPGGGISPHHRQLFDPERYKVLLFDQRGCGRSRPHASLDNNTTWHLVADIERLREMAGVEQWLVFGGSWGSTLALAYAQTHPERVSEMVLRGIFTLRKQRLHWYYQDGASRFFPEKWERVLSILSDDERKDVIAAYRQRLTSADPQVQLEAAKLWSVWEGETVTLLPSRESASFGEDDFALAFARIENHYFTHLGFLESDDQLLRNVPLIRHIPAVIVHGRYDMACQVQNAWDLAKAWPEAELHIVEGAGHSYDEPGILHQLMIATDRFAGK

Mus musculus = assay: Analgesic activity in iv dosed mouse; format: functional
[6] = tested on: Trypanosoma brucei rhodesiense; assay: microbe, parasite or virus in culture; conditions: read-out: ED50
Trypanosoma cruzi = assay: microbe, parasite or virus in culture; conditions: read-out: ED50
Beta-lactamase = Beta-lactamase (Enterobacter cloacae, UniProt P05364); assay: Inhibition of Enterobacter cloacae beta lactamase
Chain of Beta-lactamase (P05364 whole entry): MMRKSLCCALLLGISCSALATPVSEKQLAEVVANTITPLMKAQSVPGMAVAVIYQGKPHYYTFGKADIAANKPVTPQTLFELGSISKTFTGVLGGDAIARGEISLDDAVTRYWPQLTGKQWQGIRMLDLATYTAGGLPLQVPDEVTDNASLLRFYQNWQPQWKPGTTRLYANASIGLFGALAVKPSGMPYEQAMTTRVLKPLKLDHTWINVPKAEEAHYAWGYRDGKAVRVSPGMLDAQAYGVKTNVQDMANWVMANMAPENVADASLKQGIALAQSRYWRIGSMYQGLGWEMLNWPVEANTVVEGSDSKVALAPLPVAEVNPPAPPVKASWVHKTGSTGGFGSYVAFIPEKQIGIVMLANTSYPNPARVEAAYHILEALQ

Osteoclast = assay: Inhibition of bovine bone resorption in rabbit osteoclasts; format: functional, cell-based; conditions: Oryctolagus cuniculus
Coagulation factor XI = Coagulation factor XI (Homo sapiens, UniProt P03951)
Chain of Coagulation factor XI (P03951 19-387 limits assumed): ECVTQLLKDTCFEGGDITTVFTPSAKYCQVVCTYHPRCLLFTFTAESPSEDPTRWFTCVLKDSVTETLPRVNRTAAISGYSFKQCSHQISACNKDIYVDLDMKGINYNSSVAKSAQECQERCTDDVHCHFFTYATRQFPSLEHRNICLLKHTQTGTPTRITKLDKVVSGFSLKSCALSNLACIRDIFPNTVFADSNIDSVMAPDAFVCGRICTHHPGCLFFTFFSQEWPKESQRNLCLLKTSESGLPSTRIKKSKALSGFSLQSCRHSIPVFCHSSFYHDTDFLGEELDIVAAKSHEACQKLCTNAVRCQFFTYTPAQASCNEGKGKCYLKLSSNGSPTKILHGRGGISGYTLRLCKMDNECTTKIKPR
Chain of Coagulation factor XI (P03951 388-625 limits assumed): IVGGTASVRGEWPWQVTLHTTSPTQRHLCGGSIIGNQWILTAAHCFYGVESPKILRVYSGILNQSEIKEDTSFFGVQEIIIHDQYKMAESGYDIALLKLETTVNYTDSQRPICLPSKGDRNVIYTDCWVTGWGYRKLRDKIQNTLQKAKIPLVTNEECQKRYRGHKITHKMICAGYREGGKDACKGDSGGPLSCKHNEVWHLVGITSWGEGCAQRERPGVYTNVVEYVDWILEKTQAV

[7] = Selectivity for Porphyromonas gingivalis arginine gingipain over trypsin
[8] = Inhibition of Porphyromonas gingivalis arginine gingipain
[9] = Selectivity for Porphyromonas gingivalis arginine gingipain over cathepsin B

Structure (SMILES): Cc1ccc(S(=O)(=O)N[C@@H](CC(=O)NCC(C)(C)C)C(=O)N[C@@H](C)C(=O)N[C@@H](CC(C)C)C(=O)c2nnc(-c3ccccc3)o2)cc1
- Ki [1]: > 900000 nM
- IC50 (PC-3): 200 nM
- Ki [2]: > 300000 nM

Structure (SMILES): CC[C@H](C)[C@H](NC(=O)[C@@H](Cc1ccccc1)NS(=O)(=O)Cc1ccccc1)C(=O)N[C@@H](CCCN=C(N)N)C(=O)c1nccs1
- IC50 (Prothrombin): 19000 nM
- IC50 (Coagulation factor X): 380 nM
- IC50 (Coagulation factor VII): 300 nM

Structure (SMILES): Nc1nc(N)c(CCCCCC(=O)c2nc3ccccc3o2)c(=O)[nH]1
- Ki [3]: > 100000 nM
- Ki [4]: 15000 nM
- Ki [5]: > 100000 nM

Structure (SMILES): CC(C)(C)c1nnc(C(=O)[C@@H]2CCCN2)o1
- Ki (Proline iminopeptidase): 500 nM

Structure (SMILES): O=C(CCCCCCc1ccccc1)c1ncc(-c2ccccn2)o1
- ED50 (Mus musculus): 1.9 mg/kg

Structure (SMILES): O=C(c1cc(-c2ccccc2)on1)[C@@H]1CCCN1C(=O)[C@@H]1CCCN1C(=O)OCc1ccccc1
- EC50 [6]: 2200 µg/mL (≈ 4.65 mM)
- EC50 (Trypanosoma cruzi): 6700 µg/mL (≈ 14.1 mM)

Structure (SMILES): O=C(Cc1ccccc1)NCC(=O)c1nc(C(=O)O)cs1
- Ki (Beta-lactamase): 110000 nM

Structure (SMILES): CCC[C@H](NC(=O)C1(NC(=O)c2ccc(N(C)C)cc2)CCCCC1)C(=O)c1nnc(-c2ccco2)o1
- IC50 (Osteoclast): 130 nM

Structure (SMILES): CC(C)[C@H](NC(=O)[C@H](CC1CCCCC1)NC(=O)N[C@H](C)c1ccc(Br)cc1)C(=O)N[C@@H](CCCNC(=N)N)C(=O)c1nccs1
- IC50 (Prothrombin): 980 nM
- IC50 (Coagulation factor X): 2700 nM
- IC50 (Coagulation factor XI): 10 nM

Structure (SMILES): NCCCC[C@H](NC(=O)C1CCCN(C(=O)CCc2ccccc2)C1)C(=O)c1nc2ccccc2s1 (stereo partly specified)
- Selectivity ratio [7]: 30
- Ki [8]: 0.9 nM
- Selectivity ratio [9]: 120000
